Molecular target: NDM-1 (Klebsiella pneumoniae, UniProt C7C422)
Assay: Zn(II) supplementation assay
Type: biochemical
Conditions: Bi-NDM-1 from apo-NDM-1 and CBS; ZnSO4 up to 2 molar equivalents; apo-NDM-1 + 2 eq Zn = 1
Method: To investigate whether enzyme inhibition can be reversed, enzyme activities of apo-NDM-1 and Bi-NDM-1 were compared with the supplementation of Zn(II). Bi-NDM-1 (50 nM) was prepared by pre-incubation of apo-NDM-1 with CBS for 2 h at 25° C. and the bound Bi was verified using ICP-MS. The above protein solutions were mixed with ZnSO4 at concentration up to 2 molar equivalents to NDM-1 and 100 μM MER. The change in absorbance at 300 nm was monitored in a 1 cm quartz cuvette using Varian Cary® 50 UV-visible spectrophotometer at 25° C. for reaction rate calculations. Reaction rate of apo-NDM-1 with addition of 2 molar equivalents of ZnSO4 was normalized to be 1. […]. […] To confirm this, the metal contents of both Zn(II) and Bi(III) were monitored by inductively-coupled plasma mass spectrometry (ICP-MS) as described below.

NDM-1, sequence (C7C422 whole entry, looked up): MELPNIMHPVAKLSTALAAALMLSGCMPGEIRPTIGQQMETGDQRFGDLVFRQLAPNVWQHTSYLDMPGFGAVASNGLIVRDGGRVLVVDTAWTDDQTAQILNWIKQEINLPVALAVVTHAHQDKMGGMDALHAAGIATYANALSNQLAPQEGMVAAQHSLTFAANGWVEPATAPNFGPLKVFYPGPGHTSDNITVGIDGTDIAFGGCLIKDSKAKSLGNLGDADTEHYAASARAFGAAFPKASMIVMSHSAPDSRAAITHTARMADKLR

Compound: O=C([O-])CC([O-])(CC(=O)[O-])C(=O)[O-].O=C([O-])CC([O-])(CC(=O)[O-])C(=O)[O-].[Bi+3].[Bi+3].[K+] [Complex 10, colloidal bismuth subcitrate]
- enzyme activity restored upon supplementation of Zn(II) to Bi-NDM-1: 25%
